Data: ChEMBL document CHEMBL1201862, “PubChem BioAssay data set” (2004)
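A five-concentration, 48-hour dose response in 96-well plates underlies each endpoint, interpolated linearly between surrounding concentrations. GI50 is the concentration that inhibits growth by half.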 Activity calls are given as the source filed them. Cut-off read from the data, not from the text of the source: active = GI50 up to about 1.1 µM and inactive = higher.

How the values were obtained:
Test in all cases: NCI anticancer screen, dose series, 48 h
UACC-257 = test system: UACC-257
HCT-15 = test system: HCT-15
TK-10 = test system: TK-10
HCC 2998 = test system: HCC 2998
NCI-H460 = test system: NCI-H460
SNB-19 = test system: SNB-19
KM12 = test system: KM12
A549 = test system: A549
EKVX = test system: EKVX
SK-MEL-28 = test system: SK-MEL-28
U-251 = test system: U-251
SF-539 = test system: SF-539
NCI-H226 = test system: NCI-H226
SR = test system: SR
Malme-3M = test system: Malme-3M
MOLT-4 = test system: MOLT-4
CCRF-CEM = test system: CCRF-CEM
SF-268 = test system: SF-268

SMILES	GI50 (UACC-257)	GI50 (HCT-15)	GI50 (TK-10)	GI50 (HCC 2998)	GI50 (NCI-H460)	GI50 (SNB-19)	GI50 (KM12)	GI50 (A549)	GI50 (EKVX)	GI50 (SK-MEL-28)	GI50 (U-251)	GI50 (SF-539)	GI50 (NCI-H226)	GI50 (SR)	GI50 (Malme-3M)	GI50 (MOLT-4)	GI50 (CCRF-CEM)	GI50 (SF-268)
CC(C)(C)c1cc(C(OCCl)(C(F)(F)F)C(F)(F)F)c2c(c1)C(C(F)(F)F)(C(F)(F)F)OC21c2ccccc2C(=O)c2ccccc21	> 100 µM (inactive)	> 100 µM	> 100 µM (inactive)	> 100 µM (inactive)	> 100 µM (inactive)	> 100 µM (inactive)	> 100 µM (inactive)	> 100 µM (inactive)	> 100 µM (inactive)	> 100 µM (inactive)	> 100 µM (inactive)	> 100 µM (inactive)	> 100 µM (inactive)	> 100 µM (inactive)	> 100 µM (inactive)	> 100 µM (inactive)		
COC(=O)CCCN(C)c1nc(N)n[nH]1	> 100 µM (inactive)	> 100 µM	> 100 µM (inactive)	> 100 µM (inactive)	> 100 µM (inactive)	> 100 µM (inactive)	> 100 µM (inactive)	> 100 µM (inactive)	> 100 µM (inactive)	> 100 µM (inactive)	> 100 µM (inactive)	> 100 µM (inactive)	> 100 µM (inactive)	> 100 µM (inactive)		> 100 µM (inactive)	> 100 µM (inactive)	> 100 µM (inactive)
CCOC(=O)/C(=C\c1ccc[nH]1)C(=O)c1ccccc1	> 100 µM (inactive)	> 100 µM	> 100 µM (inactive)	> 100 µM (inactive)	> 100 µM (inactive)	> 100 µM (inactive)	65.9 µM (inactive)	> 100 µM (inactive)	> 100 µM (inactive)	> 100 µM (inactive)	> 100 µM (inactive)	> 100 µM (inactive)	> 100 µM (inactive)	25.8 µM (inactive)	> 100 µM (inactive)	43.3 µM (inactive)	58.3 µM (inactive)	91 µM (inactive)
CC12Oc3ccc4ccccc4c3C1c1c(ccc3ccccc13)O2 (stereo unspecified)			> 100 µM (inactive)		> 100 µM (inactive)	> 100 µM (inactive)	> 100 µM (inactive)	> 100 µM (inactive)	> 100 µM (inactive)	> 100 µM (inactive)	> 100 µM (inactive)	78.2 µM (inactive)	> 100 µM (inactive)	> 100 µM (inactive)	> 100 µM (inactive)	> 100 µM (inactive)	> 100 µM (inactive)	> 100 µM (inactive)
O=C(CCCCCCCCCCc1ccccc1)c1c(O)cccc1O	20.2 µM (inactive)	20 µM	39 µM (inactive)	19.4 µM (inactive)	20.8 µM (inactive)	20.2 µM (inactive)	18.4 µM (inactive)	27.7 µM (inactive)	21.3 µM (inactive)	20 µM (inactive)	21.2 µM (inactive)	18.1 µM (inactive)	21.2 µM (inactive)	25.2 µM (inactive)	17.9 µM (inactive)	23.7 µM (inactive)	31.6 µM (inactive)	23.8 µM (inactive)
Cc1ccc(C2=NN(C)COC2C(F)(F)F)cc1 (stereo unspecified)	> 100 µM (inactive)	> 100 µM		> 100 µM (inactive)	> 100 µM (inactive)	> 100 µM (inactive)	> 100 µM (inactive)	> 100 µM (inactive)	> 100 µM (inactive)	> 100 µM (inactive)	> 100 µM (inactive)	> 100 µM (inactive)	> 100 µM (inactive)	> 100 µM (inactive)	> 100 µM (inactive)	> 100 µM (inactive)	> 100 µM (inactive)	> 100 µM (inactive)
